{"source": "patent US11576985B2", "about": "“Contrast imaging agent with dissolved gas-evolving fluid” (BAYER HEALTHCARE LLC, priority 2015, dated 2023)", "key": {"[1]": {"conditions": "rats; cited from earlier work"}, "[2]": {"conditions": "humans, compared with rats; cited from earlier work"}, "[3]": {"test": "Amount of xenon gas dissolved in water, blood and oil with increasing pressure, computed by Henry's Law", "format": "physicochemical", "source_text": "Dissolution of xenon gas in liquid, such as saline or other medical fluid, including an iodine X-ray contrast solution, provides a diagnostic contrast composition with a variety of available concentrations of xenon (mg) per mL of liquid based on a number of parameters, including pressure or presence of one or more concentration-augmenting compositions. For example, the concentration of the gas-evolving fluid in the carrier fluid may be dependent on pressure and temperature. In certain circumstances, it may be desirable to augment the concentration of the gas-evolving fluid beyond the carrying capacity of the carrier fluid at, for example, standard temperature and pressure. For example, according to Henry's Law, the amount of a gas dissolved in a liquid is proportional to the partial pressure of the gas in the volume of the liquid at a given temperature. Table 2 below uses the coefficients from Table 1 above to compute the amount of xenon gas that is dissolved in water, blood, and oil based on increasing pressure (from 1 atm to 30 atm)."}, "[4]": {"conditions": "37 C., cited from earlier work"}}, "note": "Like-named read-outs stand apart in the source and are kept apart here."}
{"smiles": "FC(F)(F)C(F)(F)C(F)(F)C(F)(F)C(F)(F)C(F)(F)C(F)(F)C(F)(F)Br", "note": "[Perfluorooctylbromide]", "values": [{"measurement": "retention half-life", "setting": "[1]", "value": "about 6 hours"}, {"measurement": "retention half-life", "setting": "[2]", "value": "shorter retention half-life in humans"}]}
{"smiles": "[Xe]", "note": "[xenon]", "values": [{"measurement": "Amount of Gas Dissolved in the Liquid", "setting": "[3]; blood, 1 atm", "value": 0.7603, "unit": "mgmXe/ml"}, {"measurement": "Amount of Gas Dissolved in the Liquid", "setting": "[3]; blood, 2 atm", "value": 1.521, "unit": "mgmXe/ml"}, {"measurement": "Amount of Gas Dissolved in the Liquid", "setting": "[3]; blood, 4 atm", "value": 3.041, "unit": "mgmXe/ml"}, {"measurement": "Amount of Gas Dissolved in the Liquid", "setting": "[3]; blood, 5 atm", "value": 3.801, "unit": "mgmXe/ml"}, {"measurement": "Amount of Gas Dissolved in the Liquid", "setting": "[3]; blood, 30 atm", "value": 22.81, "unit": "mgmXe/ml"}, {"measurement": "Amount of Gas Dissolved in the Liquid", "setting": "[3]; oil, 1 atm", "value": 9.942, "unit": "mgmXe/ml"}, {"measurement": "Amount of Gas Dissolved in the Liquid", "setting": "[3]; oil, 2 atm", "value": 19.88, "unit": "mgmXe/ml"}, {"measurement": "Amount of Gas Dissolved in the Liquid", "setting": "[3]; oil, 4 atm", "value": 39.77, "unit": "mgmXe/ml"}, {"measurement": "Amount of Gas Dissolved in the Liquid", "setting": "[3]; oil, 5 atm", "value": 49.71, "unit": "mgmXe/ml"}, {"measurement": "Amount of Gas Dissolved in the Liquid", "setting": "[3]; oil, 30 atm", "value": 298.2589, "unit": "mgmXe/ml"}, {"measurement": "Amount of Gas Dissolved in the Liquid", "setting": "[3]; saline, 1 atm", "value": 0.4971, "unit": "mgmXe/ml"}, {"measurement": "Amount of Gas Dissolved in the Liquid", "setting": "[3]; saline, 2 atm", "value": 0.9942, "unit": "mgmXe/ml"}, {"measurement": "Amount of Gas Dissolved in the Liquid", "setting": "[3]; saline, 4 atm", "value": 1.988, "unit": "mgmXe/ml"}, {"measurement": "Amount of Gas Dissolved in the Liquid", "setting": "[3]; saline, 5 atm", "value": 2.485, "unit": "mgmXe/ml"}, {"measurement": "Amount of Gas Dissolved in the Liquid", "setting": "[3]; saline, 30 atm", "value": 14.91, "unit": "mgmXe/ml"}, {"measurement": "bunsen constant", "setting": "[4]; olive oil", "value": 1.7}, {"measurement": "bunsen constant", "setting": "[4]; seawater (*1.3 of pure water)", "value": 0.1105}, {"measurement": "bunsen constant", "setting": "[4]; water", "value": 0.085}]}
